Assay results as given in US5681563A, “7-vinylidene cephalosporins and methods of using the same” (Research Corporation Technologies, Inc., priority 1996, dated 1997).
Counter-ions that a name gives are not always drawn. Like-named read-outs stand apart in the source and are kept apart here.

Biological target: β-lactamase of Enterobacter cloacae P99 (Enterobacter cloacae, UniProt P05364)
Experiment: P99 β-lactamase inhibitory activity (loss of nitrocefin hydrolysis by free enzyme)
Format: biochemical
Procedure: The activity of the present compounds against β-lactamases was determined by measuring the IC50. The IC50 value represents the concentration of inhibitor required to effect a 50% loss of activity of free enzyme. The present 7-vinylidenecephems were evaluated as inhibitors of the β-lactamase of Enterobacter cloacae P99. The IC50 value of each compound was determined as follows. Following a 10 minute incubation of a dilute solution of enzyme (2.56 nM) and inhibitor (<0.64 mM), a […] of this incubation mixture was then further diluted into 1 mL nitrocefin solution, and the rate of hydrolysis was measured during a 1 minute period by monitoring the absorbance of nitrocefin as a function of time.

[1] = P99 β-lactamase, 10 minute incubation of enzyme (2.56 nM) and inhibitor (<0.64 mM), then dilution into nitrocefin solution, rate over 1 minute
[2] = P99 β-lactamase, 10 minute incubation of enzyme (2.56 nM) and inhibitor (<0.64 mM), then dilution into nitrocefin solution, rate over 1 minute, read-out: IC50 (converted)

Chain of β-lactamase of Enterobacter cloacae P99 (P05364 21-381): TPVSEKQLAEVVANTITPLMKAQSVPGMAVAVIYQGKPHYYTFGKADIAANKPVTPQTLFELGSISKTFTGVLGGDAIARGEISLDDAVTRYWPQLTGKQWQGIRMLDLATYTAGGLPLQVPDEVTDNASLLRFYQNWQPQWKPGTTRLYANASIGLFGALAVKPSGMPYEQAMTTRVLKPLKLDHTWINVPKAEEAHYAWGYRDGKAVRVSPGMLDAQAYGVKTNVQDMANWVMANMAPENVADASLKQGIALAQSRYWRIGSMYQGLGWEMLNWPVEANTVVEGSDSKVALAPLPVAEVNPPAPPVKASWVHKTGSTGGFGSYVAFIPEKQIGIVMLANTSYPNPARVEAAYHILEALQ

For “7-(2'α-t-butyl-2'β-deuteriovinylidene) cephem sulfone”, which IC50 [1] is on record?
Its IC50 is 100 µg/mL.

Which IC50 [2] does the source give for `CC(C)(C)C=C=C1C(=O)N2[C@@H](C(=O)O)C(C)(C)S(=O)(=O)[C@H]12` [6-(2'α-t-butylvinylidene) penam sulfone, reference compound] here?
Its IC50 is 1.24 µM.

Which IC50 [2] does the source give for `CC(=O)OCC1=C(C(=O)O)N2C(=O)C(=C=CC(C)(C)C)[C@H]2SC1` [Compound 13, Sodium Salt of 7-(2'α-t-Butylvinylidene) Cephalosporanic Acid] here?
The IC50 was 11.6 µM.

Which IC50 [1] does the source give for `CC(=O)OCC1=C(C(=O)[O-])N2C(=O)C(=C=CBr)C2SC1.[Na+]` (stereo not drawn) [Compound 14, Sodium Salt of 7-(2'α-Bromovinylidene) Cephalosporanic Acid] here?
The IC50 was 6160 µg/mL.

With `C=C=C1C(=O)N2C(C(=O)O)=C(COC(C)=O)CS[C@H]12` [Compound 15, Sodium Salt of 7-Vinylidene Cephalosporanic Acid] as the molecule, how does the IC50 [2] read?
Its IC50 is 91.8 µM.

Which “fold better inhibitor than clavulanic acid” value does the source give for `CC(=O)OCC1=C(C(=O)O)N2C(=O)C(=C=CC(C)(C)C)[C@H]2S(=O)(=O)C1` [Compound 16, Sodium Salt of 7-(2'α-t-Butylvinylidene) Cephalosporanic Acid Sulfone] here?
The value was ~350 fold.

And the “fold better inhibitor than tazobactam” value?
The value was “approximately five”.

And the “β-lactamase inhibition (in words)” value?
Its value is “most potent inhibitor”.

What about the IC50 (read-out: IC50 (converted)) of the same molecule?
Its IC50 is 0.135 µM.

With `C=C=C1C(=O)N2C(C(=O)O)=C(COC(C)=O)CS(=O)(=O)[C@H]12` [Compound 17, 7-vinylidenecephem sulfone] as the molecule, how does the IC50 [2] read?
Its IC50 is 0.351 µM.
